# Values quoted from earlier work in patent publication US6638535B2, “Modified release formulations containing a hypnotic agent” (Synthon BV, priority 2000, dated 2003).
# Settings: in therapy, after ingestion of the commercial immediate release tablet
structure (smiles),measurement,setting,value
"Cc1ccc(-c2nc3ccc(C)cn3c2CC(=O)N(C)C)cc1 [zolpidem, N,N,6-trimethyl-2-(4-methylphenyl)-imidazo[1,2-s]pyridine-3-acetamide]",duration of action (action lasts),,4 to 6 h
same,onset of action (starts acting),'or even earlier',15 to 30 min
